Values quoted from earlier work, collected in patent publication US20250345332A1, “APROCITENTAN FOR THE TREATMENT OF HYPERTENSION” (IDORSIA PHARMACEUTICALS LTD, priority 2022, published 2025).

Legend:
[1] = system: patients with type 2 diabetes and overt diabetic nephropathy; settings: in vivo; cited from earlier work
patients with rHT = settings: cited from earlier work
[2] = system: subjects having essential hypertension; settings: lisinopril 20 mg, cited from earlier work
[3] = system: subjects having essential hypertension; settings: after 8 weeks once daily, at trough, aprocitentan 5, 10, 25, 50 mg groups, lisinopril 20 mg, cited from earlier work

## COc1ccccc1Oc1c(NS(=O)(=O)c2ccc(C)cn2)nc(-c2ccncc2)nc1OC [Avosentan, avosentan]
[1]
  albumin-to-creatinine ratio (ACR): significantly reduced

## COc1cc(OC)nc(O[C@H](C(=O)O)C(OC)(c2ccccc2)c2ccccc2)n1 [darusentan]
Patients with rHT; 14 weeks
  reduction of ambulatory blood pressure: demonstrated efficacy
  treatment effect on the primary endpoint systolic blood pressure: failed to show significant treatment effect
Patients with rHT; versus 12% in each of the other groups
  fluid retention/edema (most frequent adverse event): 28%

## NCCCC[C@H](N[C@@H](CCc1ccccc1)C(=O)O)C(=O)N1CCC[C@H]1C(=O)O [lisinopril, reference compound]
[2]; aprocitentan 5-50 mg groups
  discontinuation from study treatment due to an adverse event: 3.7%
[2]
  mean body weight decrease from baseline: 0.3 kg
[3]; per-protocol population
  mean reduction from baseline in diastolic blood pressure: 8.4 mmHg
[3]
  systolic blood pressure reductions: 12.8 mmHg
